Data taken from patent US7977466B2, “C-glycoside derivatives and salts thereof” (Astellas Pharma Inc., priority 2003, dated 2011).

What was measured:
human SGLT2 = molecular target: T1, human SGLT2 (Homo sapiens, UniProt P31639); assay: Inhibition of human Na+-glucose cotransporter (human SGLT2) activity: methyl-α-D-glucopyranoside intake in CHO cells stably expressing human SGLT2; assay type: cell-based; settings: CHO cell stably expressing human SGLT2; methyl-α-D-(U-14C)glucopyranoside intake, 37° C., two hours
T1 construct: expressed in transfected cells; host or cells: CHO-K1
T1 sequence (P31639 1-672): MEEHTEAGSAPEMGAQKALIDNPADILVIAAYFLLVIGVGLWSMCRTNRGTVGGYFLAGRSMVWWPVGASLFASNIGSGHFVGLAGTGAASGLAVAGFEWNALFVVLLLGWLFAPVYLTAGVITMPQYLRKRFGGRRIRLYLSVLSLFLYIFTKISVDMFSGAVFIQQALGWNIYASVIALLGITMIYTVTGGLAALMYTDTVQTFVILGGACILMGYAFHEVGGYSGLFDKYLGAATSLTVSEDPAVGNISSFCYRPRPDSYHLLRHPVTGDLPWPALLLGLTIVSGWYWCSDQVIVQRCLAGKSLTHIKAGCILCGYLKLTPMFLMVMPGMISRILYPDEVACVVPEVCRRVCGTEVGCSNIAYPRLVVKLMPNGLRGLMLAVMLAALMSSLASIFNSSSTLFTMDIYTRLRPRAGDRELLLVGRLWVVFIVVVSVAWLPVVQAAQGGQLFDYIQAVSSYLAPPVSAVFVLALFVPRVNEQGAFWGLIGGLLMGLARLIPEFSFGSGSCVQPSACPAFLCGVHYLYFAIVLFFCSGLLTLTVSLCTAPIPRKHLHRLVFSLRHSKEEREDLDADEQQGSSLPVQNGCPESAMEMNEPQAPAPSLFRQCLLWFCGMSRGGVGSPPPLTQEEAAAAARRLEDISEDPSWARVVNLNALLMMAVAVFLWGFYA
Description: Inhibition of Human Na^+-Glucose Cotransporter (Human SGLT2) Activity
(1) Preparation of Human SGLT 2 Expression Vector
First, single-strand cDNA was reversely transcripted from total RNA originating from the human kidney (manufactured by BD Biosciences Clontech) using a Superscript II (manufactured by Invitrogen Corporation) and a random hexamer. Second, using the cDNA as a template, a DNA fragment encoding a human SGLT2 (Wells, R. G. et al., Am. J. Physiol., 1992, 263(3) F459) was amplified by the PCR reaction using Pyrobest DNA polymerase (manufactured by Takara Bio Inc.). That is, a Hind III site and an EcoRI site were inserted into the 5′ side and the 3′ side of the DNA fragment, respectively by using primers.
The amplified fragment was cloned into a pCR2.1-Topo vector using a Topo TA Cloning Kit (manufactured by Invitrogen Corporation) and the cloned vector was transfected into a competent cell of Escherichia coli JM109. Ampicillin-resistant clones were cultured in a LB medium containing ampicillin (100 mg/l). A plasmid was purified from the cultured Escherichia coli using the method of Hanahan (see Maniatis et al., “Molecular Cloning”). A DNA fragment for encoding a human SGLT2 was obtained by the Hind III/EcoRI digestion of the plasmid and ligated and cloned to the same site of the expression vector pcDNA 3.1 (manufactured by Invitrogen Corporation) using a DNA ligase (manufactured by Roche Diagnostics). The ligated clone was transfected into a competent cell of Escherichia coli JM109 in the same manner as described above and cultured in a LB medium containing ampicillin, and a human SGLT2 expression vector was obtained using the method of Hanahan.
(2) Preparation of Human SGLT2 Expressed Cells
The human SGLT2 expression vector was transfected into a CHO-K1 cell using Lipofectamine2000 (manufactured by Invitrogen Corporation). The cell was cultured in a Ham's F12 medium (manufactured by Nissui Pharmaceutical Co., Ltd.) containing penicillin (50 IU/ml, manufactured by Dainippon Pharmaceutical Co., Ltd.), streptomycin (50 μg/ml, manufactured by Dainippon Pharmaceutical Co., Ltd.), Geneticin (40 μg/ml, manufactured by Invitrogen Corporation), and 10% fetal bovine serum in the presence of 5% CO2 at 37° C. for two weeks, and Geneticin-resistant clones were obtained.
(3) Inhibition of methyl-α-D-glucopyranoside Intake
After removing the medium of a CHO cell which stably expresses the human SGLT2, a pretreatment buffer solution (buffer solution of pH 7.4 containing choline chloride (140 mM), potassium chloride (2 mM), calcium chloride (1 mM), magnesium chloride (1 mM), 2-[4-(2-hydroxyethyl)1-piperazinyl]ethanesulfonic acid (10 mM), and tris(hydroxymethyl)aminomethane (5 mM)) was added in the amount of 100 μl per well, and incubated at 37° C. for 20 minutes.
11 μl of methyl-α-D-(U-14C)glucopyranoside (manufactured by Amersham Pharmacia Biotech) was mixed with 1,000 μl of a buffer solution for intake containing a test compound (buffer solution of pH 7.4 containing sodium chloride (140 mM), potassium chloride (2 mM), calcium chloride (1 mM), magnesium chloride (1 mM), methyl-α-D-glucopyranoside (50 μM), 2-[4-(2-hydroxy ethyl)1-piperazinyl]ethanesulfonic acid (10 mM), and tris(hydroxymethyl)aminomethane (5 mM)) to prepare a buffer solution for intake. A buffer solution for intake without a test compound was prepared for a control group. A buffer solution for basal intake without a test compound containing choline chloride (140 mM) instead of sodium chloride for measuring the basal intake was prepared as well.
After removing the pretreatment buffer solution, the buffer solution for intake was added (25 μl per well) and incubated at 37° C. for two hours. […]

[1] = tested on: blood glucose of KK-A^y mice; assay: Hypoglycemic activity confirmation test in fed KK-Ay mice; assay type: in vivo, mouse; settings: fed male KK-A^y mice, oral, suspension 1 mg/10 ml in 0.5% methylcellulose at 10 ml/kg
Description: Hypoglycemic Activity Confirmation Test
Fed KK-A^y mice (CLEA Japan, Inc., male) were used. The test compound was suspended in 0.5% methylcellulose solution to a concentration of 1 mg/10 ml. The weight of each mouse was measured. The test compound suspension was orally administered to the mice at a dose of 10 ml/kg. Only 0.5% methylcellulose solution was administered to the mice of a control group. Each group consisted of six mice. Blood was collected from the tail vein immediately before administering the compound and one, two, four, and eight hours after administering the compound. The blood glucose value was measured using a glucose CII Test Wako (manufactured by Wako Pure Chemical Industries, Ltd.). The intensity of hypoglycemic activity was determined by calculating the area under the blood glucose value-time curve (AUC) using a trapezoidal method from the glucose value of 0-8 hours after administering the compound and calculating the rate (%) of the decrease in the AUC of the drug-administered group from that of the control group.

Structure (SMILES)	IC50 (human SGLT2)	Hypoglycemic activity (rate of decrease in blood glucose AUC 0-8 hours versus control group) [1]
COc1ccc(Cc2cc3ccccc3s2)cc1[C@@H]1O[C@H](CO)[C@@H](O)[C@H](O)[C@H]1O [Example 117]	13 nM	
COc1ccc([C@@H]2O[C@H](CO)[C@@H](O)[C@H](O)[C@H]2O)cc1Cc1cc2ccccc2s1 [Example 134]	14 nM	39%
COc1cc(OC)c([C@@H]2O[C@H](CO)[C@@H](O)[C@H](O)[C@H]2O)cc1Cc1cc2ccccc2s1 [Example 141]	3.8 nM	34%
OC[C@H]1O[C@@H](c2cc(Cc3cc4ccccc4s3)c(O)cc2O)[C@H](O)[C@@H](O)[C@@H]1O [Example 142]	21 nM	
CCc1ccc(Cc2nc([C@@H]3O[C@H](CO)[C@@H](O)[C@H](O)[C@H]3O)c(Cl)nc2Cl)cc1 [Example 150]	6.5 nM	
OC[C@H]1O[C@@H](c2cc(Cc3cc4ccsc4s3)ccc2O)[C@H](O)[C@@H](O)[C@@H]1O [Example 174]	6.6 nM	
